According to patent publication US5236815A, “Class of masked stabilizers in photographic materials or developing solutions” (priority 1991, dated 1993):
Where a name gives a salt, the structure may show the parent alone. Read-outs that look alike come from different tables or passages of the source.

How the values were obtained:
[1] = alcoholic solution of 5-nitroindazole vs aqueous solution of I-2; in words
Method: A control composition (A) containing 100 g of inert gelatin in 1600 ml of water was prepared. The solution further contained matting agents and anti-halo dyes. In a second control composition (8) 300 ml of water was replaced by 300 ml of a 1% alcoholic solution of 5-nitroindazole. […] In each sample pH was adjusted to 6.5.

[2] = for solubility at room temperature: water
[3] = assay type: physicochemical; conditions: pH 11.5
Method: To said basic composition were added 0.46 mmole/l of water soluble 5-nitroindazole precursors according to the invention as specified in table 1 below. In a comparison developer 0.46 mmole of 5-nitroindazole (5-NI) was added per liter. […] Therefore a second comparison developer sample was included in which 5-nitroindazole was first dissolved in 30 ml of N-methyl-pyrrolidone (part B) and then added to the solution, replacing 30 ml of water. In each sample the pH was readjusted to 11.5 with sodium hydroxide.

SMILES | instability problems in gelatineous compositions [1] | solubility at room temperature [2] [g/100 ml] | also measured
Cc1ccc2[nH]nnc2c1 [5-methylbenzotriazole] | – | – | solubility in water ([2]; background section, no temperature given): 0.5 g/100 ml of water
c1ccc2[nH]nnc2c1 [benzotriazole] | – | 1.3 | –

Second part, led by results:

instability problems in gelatineous compositions [1] | solubility at room temperature [2] [g/100 ml] | SMILES | also measured
can be overcome | – | O=C(c1ccccc1S(=O)(=O)[O-])n1ncc2cc([N+](=O)[O-])ccc21.[K+] | solubility at room temperature ([2]; room temperature): 1.7 g/100 ml
instability problems | – | O=[N+]([O-])c1ccc2[nH]ncc2c1 [5-nitroindazole] | solubility in developer solution [3]: only slightly soluble; solubility in water [2]: 0.02 g/100 ml of water
– | 5.8 | O=C(c1ccccc1S(=O)(=O)O)n1nnc2ccccc21 [Compound I-3, 1-(2-sulphonatobenzoyl)-benzotriazole triethylamine salt] | –
